Measurements reported in patent US20250101204A1, “COMPOSITIONS AND METHODS FOR PROTECTING AGAINST CELL DAMAGE AND INFLAMMATION” (priority 2022, published 2025).
Changes are numbered by the printed parent chain. Entries after “also recorded” stand apart in the source; their conditions may differ. Like-named read-outs stand apart in the source and are kept apart here. Peptide text beside a SMILES is read from it. * marks the point of attachment. Cbz = O=C(OCc1ccccc1)*

Key:
HMGB1 [1] = molecular target: T1, HMGB1 (Homo sapiens, UniProt P09429); test: HMGB1 cytosol/nuclear distribution in fractionated PASMC; assay type: cell-based; conditions: for cytosol and nuclear levels of HMGB1: PASMC cytosolic and nuclear fraction; for exit of nuclear HMGB1 to the cytosol: especially evident in male cells
T1 construct: endogenous in cells; host or cells: pulmonary artery smooth muscle cells (PASMC), male and female
T1 sequence (P09429 1-215): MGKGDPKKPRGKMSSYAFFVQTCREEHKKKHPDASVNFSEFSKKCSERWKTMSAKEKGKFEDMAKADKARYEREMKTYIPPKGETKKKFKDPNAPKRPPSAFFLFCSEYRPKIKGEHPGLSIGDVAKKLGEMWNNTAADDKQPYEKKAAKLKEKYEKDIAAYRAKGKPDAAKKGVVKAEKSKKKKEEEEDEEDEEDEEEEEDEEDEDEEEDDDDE
Description: FIGS. 1A, 1B, 1C, and 1D show only intracellular Cysteine^106 lowers HMGB1 levels in both fractions. FIGS. 1A and 1B show peptides that bind to HMGB1^Cys106 but not HMGB1^Cys23/45 reduce HMGB1 levels in PASMC cytosolic and nuclear fraction.
FIGS. 2A and 2B show […] increases HMGB1 expulsion from the nucleus to cytosol. A proteasome inhibitor (e.g., MG 132) restores cytosolic (FIG. 2A) and nuclear (FIG. 2B) HMGB1 levels reduced by αHMGB1^Cys106 peptide.
(§1) To study the activities of HMGB1 cysteines, peptides were designed that bind to the specific regions of HMGB1 and, by shielding either Cys106 or Cys23/45, prevent their interaction with the downstream targets. The peptides with cell-penetrating TAT sequences were used to study the intracellular role of HMGB1 cysteines, while peptides without TAT served as extracellular controls. Fractionating pulmonary artery smooth muscle cells (PASMC) allowed the evaluation of HMGB1 cytosol/nuclear distribution. […] The protective role of peptide in vivo was estimated using the rat Sugen/Hypoxia PH model. Given the discovered sex difference in the HMGB1-mediated signaling, the in vitro and in vivo studies were replicated in male and female animals and cells.
(§2) To study the activities of HMGB1 cysteines, peptides were designed with cell-penetrating TAT sequences that bind to either Cys106 or Cys23/45 and prevent the interaction of these cysteines with the downstream targets. The intracellular activities of peptides were evaluated by measuring HMGB1 cytosol/nuclear distribution and the ability to regulate the recombinant HMGB1 binding to double-stranded DNA. The protective role of the Cys106-shielding peptide (αHMGB1^Cys106; SEQ ID NO: 4) was estimated using the rat Sugen/Hypoxia (Su/Hx) PAH model and human endothelial pulmonary artery cells (hPAEC).

[2] = system: human pulmonary artery endothelial cells (HPAEC); test: genotoxic stress induced in HPAEC by Doxorubicin; assay type: cell-based; conditions: Doxorubicin 1 μg/ml for 24 h
Method: as §2

p53 [3] = test: p53 expression in vivo in Su/Hx rats; parameters: species or system rat; conditions: either sex
apoptosis = test: cell apoptosis induced by the p53 activator; assay type: cell-based
HMGB1 [4] = molecular target: T2, HMGB1 (Rattus norvegicus, UniProt P63159); test: plasma HMGB1 levels in Su/Hx rats; assay type: in vivo
T2 construct: from tissue; host or cells: plasma of Su/Hx rats
T2 sequence (P63159 1-215): T1 sequence (P09429 1-215) with E189D, D202E
Description: FIGS. 11A and 11B show the sex differences in plasma HMGB1 levels in response to αHMGB1^Cys106 peptides (e.g., SEQ. ID NO: 4) in early PH stages. Note: SU2 is related to the 2 weeks after exposure to SU5416 (PAH inducer), and is indicative of a relatively early disease stage; SU5 means 5 weeks after exposure to SU5416, and is indicative of an advanced stage of the disease.
The cytosol and nuclear levels of HMGB1 were affected by a cell-penetrating peptide designed to shield Cys106 (TAT-α-HMGB1^Cys106, or α-Cys106) and not any other peptide.

[5] = molecular target: T3, recombinant fully reduced HMGB1 (Homo sapiens, UniProt P09429); test: HMGB1 binding to calf thymus double-stranded DNA cellulose with or without shielding peptide; assay type: biochemical
T3 sequence (P09429 1-215): T1 sequence (P09429 1-215)
Method: The left two gel blots show HMGB1 elution after incubation with DNA cellulose.
as §1
as §2, with “The protective role of the Cys106-shielding peptide (αHMGB1^Cys106; SEQ ID NO: 4) was estimated using the rat Sugen/Hypoxia (Su/Hx) PAH model and human endothelial pulmonary artery cells (hPAEC).” left out

p53 [6] = test: p53 levels in nuclei of PASMC; assay type: cell-based
Description: as §1

TLR4 = test: cytosolic and nuclear TLR4 protein levels; assay type: cell-based
Description: as §1

[7] = system: rat Sugen/Hypoxia (Su/Hx) PAH model; test: rat Sugen/Hypoxia (Su/Hx) PAH model, hemodynamics and right ventricle; assay type: in vivo; conditions: for right ventricle (RV) systolic pressure / protection of the RV: females, 2.5 mg/kg/day i.p.; for right ventricle (RV) systolic pressure: early stage of PH; for protection of the RV: later stage of PH; for hemodynamic parameters / protection in males: male PH rats
Description: as §1, with “cells. […]” for “cells.”
as §2, with “(hPAEC). […]” for “(hPAEC).”

[8] = system: lungs and heart of Su/Hx rats; test: lung and heart cell damage readouts in Su/Hx rats (apoptosis, senescence, necroptosis, genotoxic stress, fibrosis, hypertrophy); assay type: in vivo, rat; conditions: for genotoxic stress in vivo: Su/Hx rats, in b88 males; for senescence: female and early-stage male PAH
[9] = system: human pulmonary artery endothelial cells (HPAEC); test: apoptosis in HPAEC stimulated by RITA; assay type: cell-based
Method: as §2

[10] = listed as α-Cys106, 2.5 mg/kg/day

SIGDVAKKLGEMWNNGRKKRRQRRRPQ [HMGB1^Cys23/45]
cytosol and nuclear levels of HMGB1 (HMGB1 [1]): not

FFLFCSEYRPKIKGRKKRRQRRRPQ [αHMGB1^Cys106 peptide, cell-penetrating TAT peptide designed to shield HMGB1 Cys106]
genotoxic stress in HPAEC [2]: protective effect | expression of p53 in vivo (p53 [3]): reduces expression of p53 | expression of p53 in vivo (p53 [3]; listed as αHMGB1^Cys106): negative regulation of p53 expression | cell apoptosis (apoptosis): attenuates apoptosis | cell apoptosis (apoptosis; listed as α-Cys106): reduced cell apoptosis | degradation of HMGB1 (HMGB1 [1]): lysosomal degradation | cytosol and nuclear levels of HMGB1 (HMGB1 [1]): reduced; also recorded: affected | cytosol and nuclear levels of HMGB1 (HMGB1 [1]; listed as HMGB1^Cys106 peptide): reduces HMGB1 levels | cytosol and nuclear levels of HMGB1 (HMGB1 [1]; listed as TAT-α-HMGB1^Cys106): affected | exit of nuclear HMGB1 to the cytosol (HMGB1 [1]): enhancing the nuclear HMGB1 exit to the cytosol | exit of nuclear HMGB1 to the cytosol (HMGB1 [1]; listed as α-Cys106): enhanced the exit of nuclear HMGB1 to the cytosol | degradation of HMGB1 (HMGB1 [1]; listed as α-Cys106): induced its proteasomal degradation | HMGB1 level in PASMC (HMGB1 [1]; relative to untreated 1±0.097, N=6): 0.428±0.045 | HMGB1 level in PASMC with proteasome inhibitor (HMGB1 [1]; α-Cys106 plus proteasome inhibitor MG132, 10 μM, 1 hr, untreated 1±0.097, N=6): 0.885±0.049 | plasma HMGB1 levels (HMGB1 [4]; females, 2.5 mg/kg/day i.p.): reduced plasma HMGB1 levels | plasma HMGB1 (HMGB1 [4]; male PH rats): no changes | HMGB1 binding to DNA (HMGB1 elution after incubation with DNA cellulose) ([5]; FIG. 3): prevents HMGB1 binding to DNA | decrease in HMGB1 binding to DNA ([5]; recombinant HMGB1, double-stranded DNA cellulose): ~5.9 fold | p53 levels / expression (p53 [6]): reduces p53 levels | p53 levels / expression (p53 [6]; listed as α-Cys106): negatively affected | TLR4 protein levels / expression (TLR4): reduces cytosolic and nuclear TLR4 protein levels | TLR4 protein levels / expression (TLR4; listed as α-Cys106): negatively affected | right ventricle systolic pressure ([7]; female Su/Hx rats, preventive study, 2.5 mg/kg/day i.p. for 2 wks, Su/Hx alone 73.2±3.4, p=0.0002): 50.4±3.0 mmHg | right ventricle systolic pressure ([7]; female Su/Hx rats, treatment study, 2.5 mg/kg/day i.p. for 2 wks, Su/Hx alone 110.5±6.3, p=0.0005): 70.0±2.8 mmHg | right ventricle (RV) systolic pressure ([7]; 2.5 mg/kg/day): decreases right ventricle (RV) systolic pressure | right ventricle (RV) systolic pressure [7, 10]: decreased right ventricle (RV) systolic pressure | protection of the RV ([7]; 2.5 mg/kg/day): protects the RV | protection of the RV [7, 10]: protected the RV | hemodynamic parameters / protection in males [7]: protected only by treatment protocol | hemodynamic parameters / protection in males ([7]; listed as α-Cys106): no changes | right ventricle systolic pressure ([7]; male Su/Hx rats, treatment protocol, 2.5 mg/kg/day i.p. for 2 wks, Su/Hx alone 101.7±2.7, p=0.0007, N=5-8): 73.4±6.4 mmHg | PAH severity in Su/Hx model ([7]; rat Su/Hx, 2.5 mg/kg/day i.p. for 2 wks, 2.5 mg/kg/day): protective and treatment effects; also recorded: significantly attenuated PAH | genotoxic stress in vivo [8]: protects against genotoxic stress | genotoxic stress in vivo ([8]; listed as αHMGB1^Cys106): inhibited genotoxic stress | apoptosis in the lungs ([8]; female Su/Hx rats): decreases apoptosis; also recorded: mediates protection against apoptosis | apoptosis in the lungs ([8]; female Su/Hx rats, listed as α-Cys106): anti-apoptotic effect | apoptosis in the lungs ([8]; female Su/Hx rats, listed as αHMGB1^Cys106): reduced pulmonary apoptosis and senescence | senescence [8]: protects against senescence | senescence ([8]; listed as αHMGB1^Cys106): reduced pulmonary apoptosis and senescence | cardiac fibrosis ([8]; heart of male Su/Hx rats): anti-fibrotic activity | apoptosis in the lungs ([8]; male Su/Hx rats): does not manifest | necroptosis ([8]; males at early PAH): protects against necroptosis | cardiomyocyte hypertrophy ([8]; rat, in vivo): protective effect | apoptosis in HPAEC [9]: anti-apoptotic effect

CC(C)C[C@@H](C=O)NC(=O)[C@H](CC(C)C)NC(=O)[C@H](CC(C)C)NC(=O)OCc1ccccc1 [MG 132, reference compound] (Cbz-Leu-Leu-Leu-aldehyde)
cytosolic and nuclear HMGB1 levels reduced by αHMGB1^Cys106 peptide, effect of proteasome inhibitor (HMGB1 [1]; FIGS. 2A, 2B): restores
